pIC50: −log10 of the molar value.
Tests used:
Assay type in all cases: cell-based
human TLR7 = biological target: T1, human TLR7 (Homo sapiens, UniProt Q9NYK1); assay: TLR7 inhibition reporter assay (HEK-Blue SEAP reporter, gardiquimod stimulation); conditions: HEK-Blue cells overexpressing human TLR7, SEAP reporter, gardiquimod 7.5 μM, 22 hour incubation
T1 construct: host or cells: HEK-Blue cells
T1 sequence (Q9NYK1 27-1049): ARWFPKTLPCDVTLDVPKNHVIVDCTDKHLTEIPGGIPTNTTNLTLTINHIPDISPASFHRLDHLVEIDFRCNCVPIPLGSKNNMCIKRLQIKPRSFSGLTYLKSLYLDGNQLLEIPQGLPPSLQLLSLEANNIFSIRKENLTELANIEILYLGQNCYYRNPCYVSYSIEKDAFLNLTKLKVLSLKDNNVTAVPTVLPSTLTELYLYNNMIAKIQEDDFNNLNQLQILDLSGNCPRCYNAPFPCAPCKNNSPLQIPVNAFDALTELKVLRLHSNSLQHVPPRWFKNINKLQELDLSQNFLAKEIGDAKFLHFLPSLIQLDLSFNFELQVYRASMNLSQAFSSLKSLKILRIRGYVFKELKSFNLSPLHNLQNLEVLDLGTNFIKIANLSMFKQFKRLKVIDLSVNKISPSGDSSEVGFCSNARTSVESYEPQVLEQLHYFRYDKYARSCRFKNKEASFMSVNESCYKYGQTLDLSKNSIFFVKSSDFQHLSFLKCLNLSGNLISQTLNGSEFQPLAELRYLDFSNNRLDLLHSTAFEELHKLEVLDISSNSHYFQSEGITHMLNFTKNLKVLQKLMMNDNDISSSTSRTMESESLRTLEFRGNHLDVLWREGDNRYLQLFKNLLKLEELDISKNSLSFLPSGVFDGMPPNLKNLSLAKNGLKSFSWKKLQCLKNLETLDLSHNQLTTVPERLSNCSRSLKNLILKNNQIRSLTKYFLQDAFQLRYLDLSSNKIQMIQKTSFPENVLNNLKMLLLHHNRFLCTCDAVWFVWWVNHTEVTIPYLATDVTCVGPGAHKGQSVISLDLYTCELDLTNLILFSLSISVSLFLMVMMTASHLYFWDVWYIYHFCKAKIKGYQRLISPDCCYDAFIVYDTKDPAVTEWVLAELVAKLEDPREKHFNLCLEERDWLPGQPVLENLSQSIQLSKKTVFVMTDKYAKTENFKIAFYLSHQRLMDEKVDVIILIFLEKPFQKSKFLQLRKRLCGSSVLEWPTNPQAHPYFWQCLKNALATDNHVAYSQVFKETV
Summary of the method: (§1)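 Human TLR7/8/9 HEK-Blue reporter lines; dose range 0.05 nM–50 μM; 30 min RT preincubation; stimulus gardiquimod 7.5 μM / R848 15.9 μM / ODN2006 5 nM respectively; 22 h, 37 °C; SEAP detected colorimetrically.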

human TLR8 = biological target: T2, human TLR8 (Homo sapiens, UniProt Q9NR97); assay: TLR8 inhibition reporter assay (HEK-Blue SEAP reporter, R848 stimulation); conditions: HEK-Blue cells overexpressing human TLR8, SEAP reporter, R848 15.9 μM, 22 hour incubation
T2 construct: host or cells: HEK-Blue cells
T2 sequence (Q9NR97 27-1041): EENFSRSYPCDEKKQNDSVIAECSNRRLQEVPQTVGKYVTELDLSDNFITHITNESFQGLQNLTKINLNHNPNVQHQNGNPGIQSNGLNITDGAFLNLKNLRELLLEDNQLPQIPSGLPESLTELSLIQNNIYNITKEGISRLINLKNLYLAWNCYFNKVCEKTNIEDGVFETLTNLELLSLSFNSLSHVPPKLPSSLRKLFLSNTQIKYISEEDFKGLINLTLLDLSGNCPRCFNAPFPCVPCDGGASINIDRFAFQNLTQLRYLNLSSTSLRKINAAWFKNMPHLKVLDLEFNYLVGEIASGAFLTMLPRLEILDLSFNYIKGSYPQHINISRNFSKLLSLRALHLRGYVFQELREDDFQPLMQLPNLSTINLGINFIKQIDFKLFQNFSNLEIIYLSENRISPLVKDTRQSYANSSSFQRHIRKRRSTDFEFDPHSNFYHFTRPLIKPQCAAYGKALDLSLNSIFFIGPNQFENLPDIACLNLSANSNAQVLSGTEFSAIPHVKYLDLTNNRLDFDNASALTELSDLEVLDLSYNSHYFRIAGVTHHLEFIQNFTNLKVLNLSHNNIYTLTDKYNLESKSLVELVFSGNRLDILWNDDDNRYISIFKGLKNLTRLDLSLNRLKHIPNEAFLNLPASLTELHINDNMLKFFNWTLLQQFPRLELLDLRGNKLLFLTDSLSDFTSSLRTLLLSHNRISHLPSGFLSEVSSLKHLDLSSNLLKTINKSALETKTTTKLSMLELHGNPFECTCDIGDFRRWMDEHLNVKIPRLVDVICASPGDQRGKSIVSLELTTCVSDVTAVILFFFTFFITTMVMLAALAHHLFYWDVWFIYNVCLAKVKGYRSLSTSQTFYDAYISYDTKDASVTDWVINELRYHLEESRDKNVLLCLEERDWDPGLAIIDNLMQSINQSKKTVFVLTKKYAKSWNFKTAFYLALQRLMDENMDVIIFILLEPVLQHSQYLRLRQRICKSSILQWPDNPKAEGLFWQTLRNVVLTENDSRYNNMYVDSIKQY
Summary of the method: as §1

human TLR9 = biological target: T3, human TLR9 (Homo sapiens, UniProt Q9NR96); assay: TLR9 inhibition reporter assay (HEK-Blue SEAP reporter, ODN2006 stimulation); conditions: HEK-Blue cells overexpressing human TLR9, SEAP reporter, ODN2006 5 nM, 22 hour incubation
T3 construct: host or cells: HEK-Blue cells
T3 sequence (Q9NR96 26-1032): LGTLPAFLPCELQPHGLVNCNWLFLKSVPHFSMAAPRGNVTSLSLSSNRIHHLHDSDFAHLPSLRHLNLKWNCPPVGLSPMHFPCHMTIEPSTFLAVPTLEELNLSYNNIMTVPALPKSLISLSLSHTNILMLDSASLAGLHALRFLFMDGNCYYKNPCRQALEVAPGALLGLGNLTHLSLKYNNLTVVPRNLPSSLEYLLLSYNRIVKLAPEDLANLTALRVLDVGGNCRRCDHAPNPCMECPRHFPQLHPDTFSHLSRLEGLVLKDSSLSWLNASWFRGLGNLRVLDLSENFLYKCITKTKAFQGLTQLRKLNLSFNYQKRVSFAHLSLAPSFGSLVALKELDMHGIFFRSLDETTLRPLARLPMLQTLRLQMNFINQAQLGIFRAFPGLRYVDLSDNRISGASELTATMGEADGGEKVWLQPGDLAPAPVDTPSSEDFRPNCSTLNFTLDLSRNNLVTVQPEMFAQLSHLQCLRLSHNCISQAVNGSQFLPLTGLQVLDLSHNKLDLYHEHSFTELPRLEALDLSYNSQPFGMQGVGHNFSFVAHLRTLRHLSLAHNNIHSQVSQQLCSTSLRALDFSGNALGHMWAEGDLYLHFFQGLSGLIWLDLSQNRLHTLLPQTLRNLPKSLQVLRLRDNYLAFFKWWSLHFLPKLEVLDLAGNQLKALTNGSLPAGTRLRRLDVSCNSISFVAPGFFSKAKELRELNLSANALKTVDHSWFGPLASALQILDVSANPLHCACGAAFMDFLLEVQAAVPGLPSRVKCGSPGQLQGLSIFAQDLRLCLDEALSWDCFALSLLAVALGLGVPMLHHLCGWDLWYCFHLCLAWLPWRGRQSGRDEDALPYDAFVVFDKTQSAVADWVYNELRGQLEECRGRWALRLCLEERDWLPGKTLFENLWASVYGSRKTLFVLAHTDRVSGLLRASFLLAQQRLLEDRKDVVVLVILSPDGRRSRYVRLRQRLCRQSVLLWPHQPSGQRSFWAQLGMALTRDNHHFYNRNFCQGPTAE
Summary of the method: as §1

Compound	pIC50 (human TLR7)	pIC50 (human TLR8)	pIC50 (human TLR9)
Cc1cc(-c2[nH]c3ccc(C4CCN(Cc5ccc(OC(F)(F)F)cc5)CC4)cc3c2C(C)C)cn(C)c1=O [Example 77, 5-(3-isopropyl-5-(1-(4-(trifluoromethoxy)benzyl)piperidin-4-yl)-1H-indol-2-yl)-1,3-dimethylpyridin-2(1H)-one]	6.91	7.30	5.11
Cc1cc(-c2[nH]c3ccc(C4CCN(Cc5cc(OC(F)F)ccc5F)CC4)cc3c2C(C)C)cn(C)c1=O [Example 78, 5-(5-(1-(5-(difluoromethoxy)-2-fluorobenzyl)piperidin-4-yl)-3-isopropyl-1H-indol-2-yl)-1,3-dimethylpyridin-2(1H)-one]	7.17	7.19	4.46
Cc1cc(-c2[nH]c3ccc(C4CCN(Cc5cc(Cl)ccc5F)CC4)cc3c2C(C)C)cn(C)c1=O [Example 80, 5-(5-(1-(5-chloro-2-fluorobenzyl)piperidin-4-yl)-3-isopropyl-1H-indol-2-yl)-1,3-dimethylpyridin-2(1H)-one]	6.89	6.85	4.31
Cc1cc(-c2[nH]c3ccc(C4CCN(C5CCS(=O)(=O)C5)CC4)cc3c2C(C)C)cn(C)c1=O (stereo not drawn) [Example 81, 5-(5-(1-(1,1-dioxidotetrahydrothiophen-3-yl)piperidin-4-yl)-3-isopropyl-1H-indol-2-yl)-1,3-dimethylpyridin-2(1H)-one]	8.06	7.69	≤ 4.30
Cc1cc(-c2[nH]c3ccc(C4CCN(CC5CC5(F)F)CC4)cc3c2C(C)C)cn(C)c1=O (stereo not drawn) [Example 83, 5-(5-(1-((2,2-difluorocyclopropyl)methyl)piperidin-4-yl)-3-isopropyl-1H-indol-2-yl)-1,3-dimethylpyridin-2(1H)-one]	8.41	8.92	5.15
Cc1cc(-c2[nH]c3ccc(C4CCN(CCN5C(=O)CCC5=O)CC4)cc3c2C(C)C)cn(C)c1=O [Example 84, 1-(2-(4-(2-(1,5-dimethyl-6-oxo-1,6-dihydropyridin-3-yl)-3-isopropyl-1H-indol-5-yl)piperidin-1-yl)ethyl)pyrrolidine-2,5-dione]	7.35	7.13	≤ 4.30
Cc1cc(-c2[nH]c3ccc(C4CCN(C5CCCCC5)CC4)cc3c2C(C)C)cn(C)c1=O [Example 87, 5-(5-(1-cyclohexylpiperidin-4-yl)-3-isopropyl-1H-indol-2-yl)-1,3-dimethylpyridin-2(1H)-one]	8.51	8.24	5.59
CC(C)CN1CCC(c2ccc3[nH]c(-c4cc(-c5ccccc5)c(=O)n(C)c4)c(C(C)C)c3c2)CC1 [Example 89, 5-(5-(1-isobutylpiperidin-4-yl)-3-isopropyl-1H-indol-2-yl)-1-methyl-3-phenylpyridin-2(1H)-one]	7.77	8.35	5.71
CC(C)CCN1CCC(c2ccc3[nH]c(-c4cc(-c5ccccc5)c(=O)n(C)c4)c(C(C)C)c3c2)CC1 [Example 90, 5-(5-(1-isopentylpiperidin-4-yl)-3-isopropyl-1H-indol-2-yl)-1-methyl-3-phenylpyridin-2(1H)-one]	7.66	8.15	5.70

More lines, now with the values ahead:

pIC50 (human TLR7)	pIC50 (human TLR8)	pIC50 (human TLR9)	Compound
8.36	8.33	4.70	Cc1cc(-c2[nH]c3ccc(C4CCN(CCC#N)CC4)cc3c2C(C)C)cn(C)c1=O [Example 76, 3-(4-(2-(1,5-dimethyl-6-oxo-1,6-dihydropyridin-3-yl)-3-isopropyl-1H-indol-5-yl)piperidin-1-yl)propanenitrile]
7.95	7.97	5.42	Cc1cc(-c2[nH]c3ccc(C4CCN(CCCC(F)(F)F)CC4)cc3c2C(C)C)cn(C)c1=O [Example 79, 5-(3-isopropyl-5-(1-(4,4,4-trifluorobutyl)piperidin-4-yl)-1H-indol-2-yl)-1,3-dimethylpyridin-2(1H)-one]
8.02	7.92	6.10	Cc1cc(-c2[nH]c3ccc(C4CCN(CCC(N)=O)CC4)cc3c2C(C)C)cn(C)c1=O [Example 82, 3-(4-(2-(1,5-dimethyl-6-oxo-1,6-dihydropyridin-3-yl)-3-isopropyl-1H-indol-5-yl)piperidin-1-yl)propanamide]
8.66	8.34	5.07	Cc1cc(-c2[nH]c3ccc(C4CCN(CCCO)CC4)cc3c2C(C)C)cn(C)c1=O [Example 85, 5-(5-(1-(3-hydroxypropyl)piperidin-4-yl)-3-isopropyl-1H-indol-2-yl)-1,3-dimethylpyridin-2(1H)-one]
8.68	8.34	5.59	Cc1cc(-c2[nH]c3ccc(C4CCN(CCC(C)C)CC4)cc3c2C(C)C)cn(C)c1=O [Example 86, 5-(5-(1-isopentylpiperidin-4-yl)-3-isopropyl-1H-indol-2-yl)-1,3-dimethylpyridin-2(1H)-one]

Reference: patent US11447466B2, “Substituted indole compounds useful as inhibitors of TLR7/8/9” (BRISTOL-MYERS SQUIBB COMPANY, priority 2017, dated 2022)
